The record followed here is patent publication US20120040955A1 (priority 2009, published 2012).

Usually IC50 stands for the concentration that gives 50% inhibition. Higher therefore signals weaker potency.

The target in one experiment is T1, JAK2 (Homo sapiens, UniProt O60674).
T1 construct: endogenous in cells; host or cells: Mixed Molt4 / Ramos cell lysate (1:2)
Put plainly: kinobeads assay (competition with affinity matrix in mixed Molt4/Ramos cell lysate, dot blot detection), JAK2. Format: binding. To be noted: activity level. The protocol: (§1) The compounds of the present invention as described in the previous examples were tested in a kinobeads assay as described for ZAP-70 (WO-A 2007/137867). Briefly, test compounds (at various concentrations) and the affinity matrix with the immobilized aminopyrido-pyrimidine ligand 24 were added to cell lysate aliquots and allowed to bind to the proteins in the lysate sample. After the incubation time the beads with captured proteins were separated from the lysate. Bound proteins were then eluted and the presence of, JAK2 and JAK3 was detected and quantified using specific antibodies in a dot blot procedure and the Odyssey infrared detection system. Dose response curves for individual kinases were generated and IC50 values calculated. Kinobeads assays for ZAP-70 (WO-A 2007/137867) and for kinase selectivity profiling (WO-A 2006/134056) have been previously described.
(§2) 5× DP buffer: 250 mM Tris-HCl pH 7.4, 25% Glycerol, 7.5 mM MgCl2, 750 mM NaCl, 5 mM Na3VO4; filter the 5× DP buffer through a 0.22 μm filter and store in aliquots at −80° C. The 5× DP buffer is diluted with H2O to 1× DP buffer containing 1 mM DTT and 25 mM NaF.
(§3) Stock solutions of test compounds were prepared in DMSO. In a 96 well plate 30 μl solution of diluted test compounds at 5 mM in DMSO were prepared. Starting with this solution a 1:3 dilution series (9 steps) was prepared. For control experiments (no test compound) a buffer containing 2% DMSO was used.
(§4) Molt4 cells (ATCC catalogue number CRL-1582) and Ramos cells (ATCC catalogue number CRL-1596) were grown in 1 litre Spinner flasks (Integra Biosciences, #182101) in suspension in RPMI 1640 medium (Invitrogen, #21875-034) supplemented with 10% Fetal Bovine Serum (Invitrogen) at a density between 0.15×10^6 and 1.2×10^6 cells/ml. Cells were harvested by centrifugation, washed once with 1× PBS buffer (Invitrogen, #14190-094) and cell pellets were frozen in liquid nitrogen and subsequently stored at −80° C. Cells were homogenized in a Potter S homogenizer in lysis buffer: 50 mM Tris-HCl, 0.8% NP40, 5% glycerol, 150 mM NaCl, 1.5 mM MgCl2, 25 mM NaF, 1 mM sodium vanadate, 1 mM DTT, pH 7.5. One complete EDTA-free tablet (protease inhibitor cocktail, Roche Diagnostics, 1873580) per 25 ml buffer was added. The material was dounced 10 times using a mechanized POTTER S, transferred to 50 ml falcon tubes, incubated for 30 minutes on ice and spun down for 10 min at 20,000 g at 4° C. (10,000 rpm in Sorvall SLA600, precooled). The supernatant was transferred to an ultracentrifuge (UZ)-polycarbonate tube (Beckmann, 355654) and spun for 1 hour at 100.000 g at 4° C. (33.500 rpm in Ti50.2, precooled). The supernatant was transferred again to a fresh 50 ml falcon tube, the protein concentration was determined by a Bradford assay (BioRad) and samples containing 50 mg of protein per aliquot were prepared. The samples were immediately used for experiments or frozen in liquid nitrogen and stored frozen at −80° C.
(§5) Cell lysate (approximately 50 mg protein per plate) was thawed in a water bath at room temperature and then kept on ice. To the thawed cell lysate 1× DP 0.8% NP40 buffer containing protease inhibitors (1 tablet for 25 ml buffer; EDTA-free protease inhibitor cocktail; Roche Diagnostics 1873580) was added in order to reach a final protein concentration of 5 mg/ml total protein. The diluted cell lysate was stored on ice. Mixed Molt4/Ramos lysate was prepared by combining one volume of Molt4 lysate and two volumes of Ramos lysate (ratio 1:2).
(§6) To a 96 well filter plate (Multiscreen HTS, BV Filter Plates, Millipore #MSBVN1250) were added per well: 100 μl affinity matrix (3% beads slurry), 3 μl of compound solution, and 50 μl of diluted lysate. Plates were sealed and incubated for three hours in a cold room on a plate shaker (Heidolph tiramax 1000) at 750 rpm. Afterwards the plate was washed twice with 230 μl washing buffer (1× DP 0.4% NP40). […]

A further experiment has as its target T2, JAK3 (Homo sapiens, UniProt P52333).
T2 construct: endogenous in cells; host or cells: Mixed Molt4 / Ramos cell lysate (1:2)
T2 sequence (P52333 1-1124): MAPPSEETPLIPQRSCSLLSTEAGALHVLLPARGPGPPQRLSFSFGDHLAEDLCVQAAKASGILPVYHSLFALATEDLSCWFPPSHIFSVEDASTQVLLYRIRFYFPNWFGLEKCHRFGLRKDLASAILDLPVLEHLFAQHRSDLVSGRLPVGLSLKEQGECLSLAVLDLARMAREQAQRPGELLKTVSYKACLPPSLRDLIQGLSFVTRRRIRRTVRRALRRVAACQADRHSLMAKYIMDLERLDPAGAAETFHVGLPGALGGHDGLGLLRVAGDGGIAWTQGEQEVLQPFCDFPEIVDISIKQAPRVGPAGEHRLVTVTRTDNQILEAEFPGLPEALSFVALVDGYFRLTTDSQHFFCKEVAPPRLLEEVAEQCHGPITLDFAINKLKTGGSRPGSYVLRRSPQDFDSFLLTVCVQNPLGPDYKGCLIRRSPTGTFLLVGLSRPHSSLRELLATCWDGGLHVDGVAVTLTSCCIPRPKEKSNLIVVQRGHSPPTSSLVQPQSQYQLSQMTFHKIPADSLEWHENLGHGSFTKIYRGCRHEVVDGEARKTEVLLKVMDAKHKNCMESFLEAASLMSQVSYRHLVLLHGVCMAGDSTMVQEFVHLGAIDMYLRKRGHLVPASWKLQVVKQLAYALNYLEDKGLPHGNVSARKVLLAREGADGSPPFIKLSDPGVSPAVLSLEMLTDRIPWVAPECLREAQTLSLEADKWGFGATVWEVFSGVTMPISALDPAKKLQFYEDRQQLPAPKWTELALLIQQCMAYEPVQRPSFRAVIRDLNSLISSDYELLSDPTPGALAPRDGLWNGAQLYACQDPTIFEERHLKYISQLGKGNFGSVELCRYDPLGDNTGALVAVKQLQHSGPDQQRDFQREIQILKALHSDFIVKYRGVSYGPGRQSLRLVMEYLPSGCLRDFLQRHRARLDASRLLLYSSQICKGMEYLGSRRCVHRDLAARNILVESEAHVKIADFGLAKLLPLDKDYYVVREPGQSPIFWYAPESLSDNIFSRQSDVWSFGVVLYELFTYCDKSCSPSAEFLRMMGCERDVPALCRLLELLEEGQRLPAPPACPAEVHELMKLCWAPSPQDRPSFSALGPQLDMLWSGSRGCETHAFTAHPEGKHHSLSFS
Put plainly: kinobeads assay (competition with affinity matrix in mixed Molt4/Ramos cell lysate, dot blot detection), JAK3. The experiment is classed as binding. The settings on record: activity level. As to the method:
as §1, §2, §3, §4, §5, §6

T1 sequence (O60674 whole entry): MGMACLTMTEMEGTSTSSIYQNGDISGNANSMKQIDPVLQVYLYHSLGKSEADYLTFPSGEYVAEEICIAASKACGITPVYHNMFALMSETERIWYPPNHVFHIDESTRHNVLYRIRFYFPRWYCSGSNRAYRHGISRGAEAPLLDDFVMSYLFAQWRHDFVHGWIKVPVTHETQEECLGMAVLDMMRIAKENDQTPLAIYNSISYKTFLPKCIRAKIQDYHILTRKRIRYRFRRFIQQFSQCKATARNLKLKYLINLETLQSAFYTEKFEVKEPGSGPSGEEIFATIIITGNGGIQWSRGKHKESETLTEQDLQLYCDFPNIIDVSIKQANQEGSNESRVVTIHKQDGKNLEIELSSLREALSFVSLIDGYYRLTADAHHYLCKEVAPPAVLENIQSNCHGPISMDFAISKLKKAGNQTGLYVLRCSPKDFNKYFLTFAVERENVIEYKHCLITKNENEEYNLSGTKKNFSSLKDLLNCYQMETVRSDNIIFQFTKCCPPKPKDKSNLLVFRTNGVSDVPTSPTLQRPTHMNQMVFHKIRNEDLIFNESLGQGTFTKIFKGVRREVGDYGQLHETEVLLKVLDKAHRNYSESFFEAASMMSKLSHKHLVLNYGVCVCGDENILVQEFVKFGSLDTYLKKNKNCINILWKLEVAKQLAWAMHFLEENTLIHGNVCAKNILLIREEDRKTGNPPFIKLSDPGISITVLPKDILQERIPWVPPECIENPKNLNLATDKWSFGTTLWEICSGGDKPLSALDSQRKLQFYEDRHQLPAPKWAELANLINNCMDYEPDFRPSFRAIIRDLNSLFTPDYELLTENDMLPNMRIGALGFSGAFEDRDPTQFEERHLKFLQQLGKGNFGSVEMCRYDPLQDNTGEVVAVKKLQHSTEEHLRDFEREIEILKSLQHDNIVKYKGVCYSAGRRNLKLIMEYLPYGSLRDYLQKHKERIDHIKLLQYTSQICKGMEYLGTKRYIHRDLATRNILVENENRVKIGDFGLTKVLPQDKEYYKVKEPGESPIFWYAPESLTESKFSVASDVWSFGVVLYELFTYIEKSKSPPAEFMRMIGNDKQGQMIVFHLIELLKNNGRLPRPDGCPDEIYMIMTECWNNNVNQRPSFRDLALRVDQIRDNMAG

On to `CNC(=O)c1ccc(F)c(Nc2ncc(F)c(Nc3ccccc3NS(C)(=O)=O)n2)c1` [Example 30, 3-(5-fluoro-4-(2-(methylsulfonamido)phenylamino)pyrimidin-2-ylamino)-4-fluoro-N-methybenzamide], for which the IC50 on JAK2 was greater than 10000 nM; at JAK3 it was 100 to 1000 nM.
Take `CS(=O)(=O)Nc1ccccc1Nc1nc(Nc2cc(C(N)=O)ccc2F)ncc1F` [Example 29, 4-fluoro-3-(5-fluoro-4-(2-(methylsulfonamido)phenylamino)pyrimidin-2-ylamino)benzamide]: the results for the concentration for half-maximal inhibition (IC50) at JAK2 and on JAK3 were greater than 10000 nM and 100 to 1000 nM, respectively.
In the same order, the values of `CS(=O)(=O)Nc1ccccc1Nc1nc(Nc2cc(C(=O)NCC#N)ccc2F)ncc1Cl` [Example 25] are 1000 to 10000 nM and less than 100 nM.
`CS(=O)(=O)Nc1ccccc1Nc1nc(Nc2cc(-n3cnnn3)ccc2F)ncc1F` [Example 1, N-(2-(5-fluoro-2-(2-fluoro-5-(1H-tetrazol-1-yl)phenylamino)pyrimidin-4-ylamino)phenyl)methanesulfonamide]: the concentration for half-maximal inhibition (IC50) was 1000 to 10000 nM at JAK2 and less than 100 nM at JAK3.
With `CCNC(=O)c1ccc(F)c(Nc2ncc(Cl)c(Nc3ccccc3NS(=O)(=O)CC(F)(F)F)n2)c1` [Example 44, 3-(5-chloro-4-(2-(2,2,2-trifluoroethylsulfonamido)phenylamino)pyrimidin-2-ylamino)-N-ethyl-4-fluorobenzamide], the IC50 at JAK2 is greater than 10000 nM; on JAK3, 100 to 1000 nM.
As for `CS(=O)(=O)Nc1ccccc1Nc1nc(Nc2cc(C#N)ccc2F)ncc1Cl` [Example 28, N-(2-(5-chloro-2-(5-cyano-2-fluorophenylamino)pyrimidin-4-ylamino)phenyl)methanesulfonamide], the half-inhibitory concentration (IC50) is greater than 10000 nM at JAK2 and less than 100 nM on JAK3.
As for `CCS(=O)(=O)Nc1ccccc1Nc1nc(Nc2cc(C#N)ccc2F)ncc1Cl` [Example 43, N-(2-(5-chloro-2-(5-cyano-2-fluorophenylamino)pyrimidin-4-ylamino)phenyl)ethanesulfonamide], the values for the IC50 at JAK2 and at JAK3 were greater than 10000 nM and 100 to 1000 nM, respectively.
As to `CS(=O)(=O)Nc1ccccc1Nc1nc(Nc2cc(-n3cnnn3)ccc2F)ncc1Br` [Example 12, N-(2-(5-bromo-2-(2-fluoro-5-(1H-tetrazol-1-yl)phenylamino)pyrimidin-4-ylamino)phenyl)methanesulfonamide], the IC50 was 100 to 1000 nM at JAK2 and less than 100 nM at JAK3.
Take `CNC(=O)c1ccc(F)c(Nc2ncc(Cl)c(Nc3ccccc3NS(C)(=O)=O)n2)c1` [Example 21, 3-(5-chloro-4-(2-(methylsulfonamido)phenylamino)pyrimidin-2-ylamino)-4-fluoro-N-methybenzamide]: the IC50 on JAK2 is 1000 to 10000 nM; at JAK3, less than 100 nM.
With `Cc1cccc(Nc2nc(Nc3cc(C(=O)NCCO)ccc3F)ncc2Cl)c1NS(C)(=O)=O` [Example 59, 3-((5-chloro-4-((3-methyl-2-(methylsulfonamido)phenyl)amino)pyrimidin-2-yl)amino)-4-fluoro-N-(2-hydroxyethyl)benzamide], the IC50 is greater than 10000 nM at JAK2 and less than 100 nM at JAK3.
As to `CS(=O)(=O)Nc1c(F)cc(F)cc1Nc1nc(Nc2cc(C(=O)NC3CC3)ccc2F)ncc1Cl` [Example 62, 3-((5-chloro-4-((3,5-difluoro-2-(methylsulfonamido)phenyl)amino)pyrimidin-2-yl)amino)-N-cyclopropyl-4-fluorobenzamide], the 50% inhibitory concentration (IC50) at JAK2 lay within 1000 to 10000 nM; at JAK3, 100 to 1000 nM.
Turning to `CCNC(=O)c1ccc(F)c(Nc2ncc(Cl)c(Nc3ccccc3NS(=O)(=O)CC)n2)c1` [Example 39, 3-(5-chloro-4-(2-(ethylsulfonamido)phenylamino)pyrimidin-2-ylamino)-N-ethyl-4-fluorobenzamide], the half-inhibitory concentration (IC50) on JAK2 was greater than 10000 nM; at JAK3 it was less than 100 nM.
As for `COc1ccc(Nc2nc(Nc3cc(-n4cnnn4)ccc3F)ncc2Cl)c(NS(C)(=O)=O)c1` [Example 10, N-(2-(5-chloro-2-(2-fluoro-5-(1H-tetrazol-1-yl)phenylamino)pyrimidin-4-ylamino)-5-methoxyphenyl)methanesulfonamide], the IC50 at JAK2 is 100 to 1000 nM; on JAK3, less than 100 nM.
Regarding `CS(=O)(=O)Nc1ccccc1Nc1nc(Nc2cc(-n3cnnn3)ccc2F)ncc1Cl` [Example 7, N-(2-(5-chloro-2-(2-fluoro-5-(1H-tetrazol-1-yl)phenylamino)pyrimidin-4-ylamino)phenyl)methanesulfonamide], the IC50 is 100 to 1000 nM at JAK2 and less than 100 nM at JAK3.
Take `CCN(CC)C(=O)c1ccc(F)c(Nc2ncc(Cl)c(Nc3ccccc3NS(=O)(=O)CC)n2)c1` [Example 40, 3-(5-chloro-4-(2-(ethylsulfonamido)phenylamino)pyrimidin-2-ylamino)-N,N-diethyl-4-fluorobenzamide]: the results for the IC50 on JAK2 and at JAK3 were greater than 10000 nM and less than 100 nM, respectively.
Turning to `CS(=O)(=O)Nc1ccccc1Nc1nc(Nc2cc(C(=O)NC3CC3)ccc2F)ncc1Cl` [Example 15], at JAK3, the IC50 is less than 100 nM.
`CCN(CC)C(=O)c1ccc(F)c(Nc2ncc(Cl)c(Nc3ccccc3NS(C)(=O)=O)n2)c1` [Example 19, 3-(5-chloro-4-(2-(methylsulfonamido)phenylamino)pyrimidin-2-ylamino)-N,N-diethyl-4-fluorobenzamide] had an IC50 on JAK3 of 100 to 1000 nM.
Molecule `CS(=O)(=O)Nc1ccccc1Nc1nc(Nc2cc(C(=O)N3CCC3)ccc2F)ncc1Cl` [Example 20, N-(2-(2-(5-(azetidine-1-carbonyl-2-fluorophenylamino))-5-chloropyrimidin-4-ylamino)phenyl)methanesulfonamide] came in with a 50% inhibitory concentration (IC50) on JAK3 of less than 100 nM.
`CC(C)NC(=O)c1ccc(F)c(Nc2ncc(Cl)c(Nc3ccccc3NS(C)(=O)=O)n2)c1` [Example 16] yielded an IC50 at JAK3 of less than 100 nM.
